US10251394B2, “Molecules having pesticidal utility, and intermediates, compositions, and processes, related thereto” (Dow AgroSciences LLC, priority 2016, dated 2019)

Tests used:
[1] = tested on: Cabbage Looper (Trichoplusia ni); test: Bioassay on Cabbage Looper (CL), 128-well diet tray assay; type: in vivo; conditions: for pest or weed control at 50 µg/cm2: Cabbage Looper, Table ABC, read-out: CL rating
Method in brief: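 Mortality after five to seven days at 25° C (14:10 photoperiod), averaged over eight wells per compound. Diet in each well carried 50 μg/cm^2 of dried test molecule and received one to five second-instar larvae.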

[2] = tested on: Beet Armyworm (Spodoptera exigua); test: Bioassay on Beet Armyworm (BAW), 128-well diet tray assay; type: in vivo; conditions: for pest or weed control at 50 µg/cm2: Beet Armyworm, Table ABC, read-out: BAW rating
Method in brief: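 Percent mortality, averaged over eight wells, was scored after five to seven days at 25° C under 14:10 light-dark. Each well's diet carried 50 μg/cm^2 of test molecule applied in acetone-water (90:10) and dried before one to five second-instar larvae were added.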

Row | SMILES | pest or weed control at 50 µg/cm2 [1] | pest or weed control at 50 µg/cm2 [2] | other results
1 | C[C@@H](NC(=O)c1ccc(/C(F)=C/C(c2cc(Cl)c(Cl)c(Cl)c2)C(F)(F)F)cc1I)C(=O)NCC(F)(F)F (stereo partly drawn) [F67, 2-Iodo-N—((R)-1-oxo-1-((2,2,2-trifluoroethyl)amino)propan-2-yl)-4-((Z)-1,4,4,4-tetrafluoro-3-(3,4,5-trichlorophenyl)but-1-en-1-yl)benzamide] | 50 to 100% | 50 to 100% | mortality at 0.05 µg/cm2 ([1]; 168 h, 0.05 μg/cm^2 on artificial diet, second instar larvae, five to seven days, read-out: CL Percent control (or mortality)): 100%; mortality at 0.5 µg/cm2 ([1]; 168 h, 0.5 μg/cm^2 on artificial diet, second instar larvae, five to seven days, read-out: CL Percent control (or mortality)): 100%; mortality at 5 µg/cm2 ([1]; 168 h, 5 μg/cm^2 on artificial diet, second instar larvae, five to seven days, read-out: CL Percent control (or mortality)): 100%; mortality at 0.05 µg/cm2 ([2]; 168 h, 0.05 μg/cm^2 on artificial diet, second instar larvae, five to seven days, read-out: BAW Percent control (or mortality)): 100%; mortality at 0.5 µg/cm2 ([2]; 168 h, 0.5 μg/cm^2 on artificial diet, second instar larvae, five to seven days, read-out: BAW Percent control (or mortality)): 100%; mortality at 5 µg/cm2 ([2]; 168 h, 5 μg/cm^2 on artificial diet, second instar larvae, five to seven days, read-out: BAW Percent control (or mortality)): 100%
2 | CCC(F)(F)C(/C=C(\F)c1ccc(C(=O)NCC(=O)NCC(F)(F)F)c(C(F)(F)F)c1)c1cc(Cl)c(Cl)c(Cl)c1 (centres unmarked) [F87, (Z)—N-(2-Oxo-2-((2,2,2-trifluoroethyl)amino)ethyl)-4-(1,4,4-trifluoro-3-(3,4,5-trichlorophenyl)hex-1-en-1-yl)-2-(trifluoromethyl)benzamide] | 50 to 100% | 50 to 100% | –
3 | CCC(F)(F)C(/C=C(\F)c1ccc(C(=O)NC2(C(=O)NCC(F)(F)F)CC2)c(C(F)(F)F)c1)c1cc(Cl)c(Cl)c(Cl)c1 (centres unmarked) [F88, (Z)-4-(1,4,4-Trifluoro-3-(3,4,5-trichlorophenyl)hex-1-en-1-yl)-N-(1-((2,2,2-trifluoroethyl)carbamoyl)cyclopropyl)-2-(trifluoromethyl)benzamide] | 50 to 100% | 50 to 100% | –
4 | O=C(NC1(C(=O)NCCCC(F)(F)F)CC1)c1ccc(/C(F)=C/C(c2cc(Cl)c(Cl)c(Cl)c2)C(F)(F)F)cc1C(F)(F)F (centres unmarked) [F89, (Z)-4-(1,4,4,4-Tetrafluoro-3-(3,4,5-trichlorophenyl)but-1-en-1-yl)-N-(1-((4,4,4-trifluorobutyl)carbamoyl)cyclopropyl)-2-(trifluoromethyl)benzamide] | 50 to 100% | 50 to 100% | –
5 | O=C(NC1(C(=O)NCCC(F)(F)F)CC1)c1ccc(/C(F)=C/C(c2cc(Cl)c(Cl)c(Cl)c2)C(F)(F)F)cc1C(F)(F)F (centres unmarked) [F90, (Z)-4-(1,4,4,4-Tetrafluoro-3-(3,4,5-trichlorophenyl)but-1-en-1-yl)-2-(trifluoromethyl)-N-(1-((3,3,3-trifluoropropyl)carbamoyl)cyclopropyl)benzamide] | 50 to 100% | 50 to 100% | –
6 | CC(C)CCNC(=O)C1(NC(=O)c2ccc(/C(F)=C/C(c3cc(Cl)c(Cl)c(Cl)c3)C(F)(F)F)cc2C(F)(F)F)CC1 (centres unmarked) [F91, (Z)—N-(1-(Isopentylcarbamoyl)cyclopropyl)-4-(1,4,4,4-tetrafluoro-3-(3,4,5-trichlorophenyl)but-1-en-1-yl)-2-(trifluoromethyl)benzamide] | 50 to 100% | 50 to 100% | –
7 | CC(F)(F)CNC(=O)C1(NC(=O)c2ccc(/C(F)=C/C(c3cc(Cl)c(Cl)c(Cl)c3)C(F)(F)F)cc2C(F)(F)F)CC1 (centres unmarked) [F92, (Z)—N-(1-((2,2-Difluoropropyl)carbamoyl)cyclopropyl)-4-(1,4,4,4-tetrafluoro-3-(3,4,5-trichlorophenyl)but-1-en-1-yl)-2-(trifluoromethyl)benzamide] | 50 to 100% | 50 to 100% | –
8 | O=C(NC1(C(=O)NCC2CCC2)CC1)c1ccc(/C(F)=C/C(c2cc(Cl)c(Cl)c(Cl)c2)C(F)(F)F)cc1C(F)(F)F (centres unmarked) [F93, (Z)—N-(1-((Cyclobutylmethyl)carbamoyl)cyclopropyl)-4-(1,4,4,4-tetrafluoro-3-(3,4,5-trichlorophenyl)but-1-en-1-yl)-2-(trifluoromethyl)benzamide] | 50 to 100% | 50 to 100% | –
9 | C#CCNC(=O)C1(NC(=O)c2ccc(/C(F)=C/C(c3cc(Cl)c(Cl)c(Cl)c3)C(F)(F)F)cc2C(F)(F)F)CC1 (centres unmarked) [F94, (Z)—N-(1-(Prop-2-yn-1-ylcarbamoyl)cyclopropyl)-4-(1,4,4,4-tetrafluoro-3-(3,4,5-trichlorophenyl)but-1-en-1-yl)-2-(trifluoromethyl)benzamide] | 50 to 100% | 50 to 100% | –
10 | O=C(NC1(C(=O)NCC(F)F)CC1)c1ccc(/C(F)=C/C(c2cc(Cl)c(Cl)c(Cl)c2)C(F)(F)F)cc1C(F)(F)F (centres unmarked) [F95, (Z)—N-(1-((2,2-Difluoroethyl)carbamoyl)cyclopropyl)-4-(1,4,4,4-tetrafluoro-3-(3,4,5-trichlorophenyl)but-1-en-1-yl)-2-(trifluoromethyl)benzamide] | 50 to 100% | 50 to 100% | –
11 | CN(CC(F)(F)F)C(=O)C1(NC(=O)c2ccc(/C(F)=C/C(c3cc(Cl)c(Cl)c(Cl)c3)C(F)(F)F)cc2C(F)(F)F)CC1 (centres unmarked) [F96, (Z)—N-(1-(Methyl(2,2,2-trifluoroethyl)carbamoyl)cyclopropyl)-4-(1,4,4,4-tetrafluoro-3-(3,4,5-trichlorophenyl)but-1-en-1-yl)-2-(trifluoromethyl)benzamide] | 50 to 100% | 50 to 100% | –
12 | CN(CC(F)(F)F)C(=O)C1(NC(=O)c2ccc(/C(F)=C/C(c3cc(Cl)c(Cl)c(Cl)c3)C(F)(F)F)cc2Cl)CC1 (centres unmarked) [F97, (Z)-2-Chloro-N-(1-(methyl(2,2,2-trifluoroethyl)carbamoyl)cyclopropyl)-4-(1,4,4,4-tetrafluoro-3-(3,4,5-trichlorophenyl)but-1-en-1-yl)benzamide] | 50 to 100% | 50 to 100% | –
13 | CC[C@@H](NC(=O)c1ccc(/C(F)=C/C(c2cc(Cl)c(Cl)c(Cl)c2)C(F)(F)F)cc1C(F)(F)F)C(=O)NCC(F)(F)F (stereo partly drawn) [F98, N—((R)-1-Oxo-1-((2,2,2-trifluoroethyl)amino)butan-2-yl)-4-((Z)-1,4,4,4-tetrafluoro-3-(3,4,5-trichlorophenyl)but-1-en-1-yl)-2-(trifluoromethyl)benzamide] | 50 to 100% | 50 to 100% | –
14 | CC[C@@H](NC(=O)c1ccc(/C(F)=C/C(c2cc(Cl)c(Cl)c(Cl)c2)C(F)(F)F)cc1Cl)C(=O)NCC(F)(F)F (stereo partly drawn) [F100, 2-Chloro-N—((R)-1-oxo-1-((2,2,2-trifluoroethyl)amino)butan-2-yl)-4-((Z)-1,4,4,4-tetrafluoro-3-(3,4,5-trichlorophenyl)but-1-en-1-yl)benzamide] | 50 to 100% | 50 to 100% | –
15 | O=C(NC1(C(=O)NC2CC(F)(F)C2)CC1)c1ccc(/C(F)=C/C(c2cc(Cl)c(Cl)c(Cl)c2)C(F)(F)F)cc1C(F)(F)F (centres unmarked) [F101, (Z)—N-(1-((3,3-Difluorocyclobutyl)carbamoyl)cyclopropyl)-4-(1,4,4,4-tetrafluoro-3-(3,4,5-trichlorophenyl)but-1-en-1-yl)-2-(trifluoromethyl)benzamide] | 50 to 100% | 50 to 100% | –
16 | O=C(NC1CCCN(CC(F)(F)F)C1=O)c1ccc(/C(F)=C/C(c2cc(Cl)c(Cl)c(Cl)c2)C(F)(F)F)cc1C(F)(F)F (centres unmarked) [F104, (Z)—N-(2-Oxo-1-(2,2,2-trifluoroethyl)piperidin-3-yl)-4-(1,4,4,4-tetrafluoro-3-(3,4,5-trichlorophenyl)but-1-en-1-yl)-2-(trifluoromethyl)benzamide] | 50 to 100% | 50 to 100% | –
17 | C[C@@H](NC(=O)c1ccc(/C(F)=C/C(c2cc(Cl)cc(Cl)c2)C(F)(F)F)cc1C(F)(F)F)C(=O)NCC(F)(F)F (stereo partly drawn) [F105, 4-((Z)-3-(3,5-Dichlorophenyl)-1,4,4,4-tetrafluorobut-1-en-1-yl)-N—((R)-1-oxo-1-((2,2,2-trifluoroethyl)amino)propan-2-yl)-2-(trifluoromethyl)benzamide] | 50 to 100% | 50 to 100% | –
18 | O=C(N[C@@H]1CON(CC(F)(F)F)C1=O)c1ccc(/C(F)=C/C(c2cc(Cl)c(Cl)c(Cl)c2)C(F)(F)F)cc1C(F)(F)F (stereo partly drawn) [F106, N—((R)-3-Oxo-2-(2,2,2-trifluoroethyl)isoxazolidin-4-yl)-4-((Z)-1,4,4,4-tetrafluoro-3-(3,4,5-trichlorophenyl)but-1-en-1-yl)-2-(trifluoromethyl)benzamide] | 50 to 100% | 50 to 100% | –
19 | O=C(CNC(=O)c1ccc(/C(F)=C/C(c2ccc(Br)c(Br)c2)C(F)(F)F)cc1C(F)(F)F)NCC(F)(F)F (centres unmarked) [F107, (Z)-4-(3-(3,4-Dibromophenyl)-1,4,4,4-tetrafluorobut-1-en-1-yl)-N-(2-oxo-2-((2,2,2-trifluoroethyl)amino)ethyl)-2-(trifluoromethyl)benzamide] | 50 to 100% | 50 to 100% | –
20 | CN(CC(F)(F)F)C(=O)C1(NC(=O)c2ccc(/C(F)=C/C(c3cc(Br)cc(Br)c3)C(F)(F)F)cc2C(F)(F)F)CC1 (centres unmarked) [F108, (Z)-4-(3-(3,5-Dibromophenyl)-1,4,4,4-tetrafluorobut-1-en-1-yl)-N-(1-(methyl(2,2,2-trifluoroethyl)carbamoyl)cyclopropyl)-2-(trifluoromethyl)benzamide] | 50 to 100% | 50 to 100% | –
21 | C[C@@H](NC(=O)c1ccc(/C(F)=C/C(c2cc(Cl)cc(Br)c2)C(F)(F)F)cc1C(F)(F)F)C(=O)NCC(F)(F)F (some centres unmarked) [F109] | 50 to 100% | 50 to 100% | –
22 | O=C(CNC(=O)c1ccc(/C(F)=C/C(c2cc(Cl)c(Br)c(Cl)c2)C(F)(F)F)cc1C(F)(F)F)NCC(F)(F)F (centres unmarked) [F110] | 50 to 100% | 50 to 100% | –
